Source: PubChem BioAssay (NCI)
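Grown in 96-well plates, cells were treated for 48 hours with each compound at five concentrations. Insufficient inhibition: endpoint recorded as highest concentration tested. The concentration for 50% growth inhibition is given as GI50. Definition used: TGI = concentration required for complete inhibition of growth.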

The molecules below were run on MDA-MB-468 breast (assay: DTP human tumour cell line panel, 48 h).

Compound | GI50 [µM] | TGI [µM]
COc1cc(NC(C)CCCNC(C)C)c2ncccc2c1OC (stereo not drawn) | 25.6 | > 100
CN1CCN(CCCOc2cccc3nc(Nc4ccc(F)c(F)c4)ccc23)CC1 | 2.11 | 6.73
COc1ccc(-c2nn3ncccc3c2-c2ccnc(Nc3ccc4c(c3)OCCO4)n2)cc1 | 4 | > 21.1
Cc1nc(Sc2nc3ccc([N+](=O)[O-])cc3s2)sc1C | 1.62 | 3.59
O=C(/C=C/c1cc(Cl)ccc1Cl)Nc1ncc(Cc2ccc(Cl)cc2)s1 | 0.277 | 3.08
CCOC(=O)C#Cc1c(C(=O)OCC)nnn1[C@@H]1O[C@H](CO)[C@H]2OC3(CCCCC3)O[C@H]21 | 1.78 | 3.89
CCN(CC)c1ccc(/C=N/NC(=O)CSc2nc3ccccc3c(=O)n2Cc2ccc(S(N)(=O)=O)cc2)c(O)c1 | 0.524 | 5.03
CCc1nn2ncccc2c1-c1ccnc(NC2CC2)n1 | > 21.2 | > 25
CCCCN1C(=O)/C(=c2\sc3n(c2=O)C2C(NN=3)N(CC)C(=O)N2CC)c2ccccc21 (stereo not drawn) | 0.361 | 2.39
CC(C)(C)c1nc(-c2cccc(NS(=O)(=O)c3c(F)cccc3F)c2F)c(-c2ccnc(N)n2)s1 | 31.7 | > 100
O=C(CSc1nc2sc3c(c2c(=O)n1-c1ccc(Cl)cc1)CCCC3)NNC(=O)Nc1cccc(C(F)(F)F)c1 | 2.21 | 5.36
COc1cc2nc(-c3cccc4cccnc34)nc(NC3CCN(Cc4ccccc4)CC3)c2cc1OC | 1.43 | 2.96
O=C(Oc1ccccc1)C(Br)C(Br)c1ccccc1 (stereo not drawn) | 1.61 | 3.37
CCOc1ccc(C(C)=O)cc1NC(=O)c1cccc(-c2nnn(CC)n2)c1 | 0.557 | 6.07
O=C1Nc2ccccc2/C1=C/c1cn(CC(O)Cn2cc(/C=C3\C(=O)Nc4ccccc43)c3ccccc32)c2ccccc12 (stereo not drawn) | 2.03 | 3.75
COc1cc(-c2nccc3cc4c(cc23)OCO4)cc(OC)c1OC | 1.62 | 6.24
O=C(Nc1ccc2c(c1)OCCO2)C(=O)c1c[nH]c2ccccc12 | 1.09 | 20.7
CC(=O)O[C@H](C[C@H](C(C)C)N(C)C(=O)[C@@H](NC(=O)[C@H]1CCCCN1C)C(C)C)c1cccc(C(=O)N[C@@H](Cc2ccccc2)C[C@H](C)C(=O)O)n1 | 0.00539 | 0.102
O=C(/C=C\n1cnc(-c2cc(C(F)(F)F)cc(C(F)(F)F)c2)n1)N1CC(F)(F)C1 | 0.697 | 6.19
COc1ccc2c(c1)O/C(=C\c1cccc(OCC(=O)Nc3nc(C)c(C)s3)c1)C2=O | 0.274 | 2.12
NCCOc1ncccc1/C=C1\c2ccccc2-c2ccc([N+](=O)[O-])cc21 | 0.0712 | 0.351

Compound | GI50 [µM] | TGI [µM]
O=C(O)Cn1ccc2ccccc21 | > 100 | > 100
Nc1ccc(-c2ccc3ncc4ccc(=O)n(-c5cccc(C(F)(F)F)c5)c4c3c2)cn1 | < 0.01 | 0.0431
C[C@H](NC(=O)c1c(C(F)F)nn(C)c1Oc1cccc(C(F)(F)F)c1)c1ccc(C(=O)O)cc1 | > 100 | > 100
CC/C(Cc1ccccc1)=C(/c1ccc(O)cc1)c1ccc(OCCN2CCCC2)cc1 | 1.66 | 3.28
Cc1noc(C)c1-c1cnc2c(-c3ccc(C(=O)O)cc3)cn([C@@H](C)c3ccccn3)c2c1 | 0.309 | 27.2
COc1cc(Nc2ncnc(Nc3ccc4c(n3)NC(=O)C(C)(C)O4)n2)cc(OC)c1OC | 0.522 | > 100
C=C1C(=O)O[C@H]2[C@H]1CC/C(COC(=O)NCCc1cccc(OC)c1)=C\CC[C@@]1(C)O[C@@H]21 | 0.85 | 3.27
NC(CSC(c1ccccc1)(c1ccccc1)c1ccc(F)cc1)C(=O)O (stereo not drawn) | 0.233 | 
CCc1nc2cc(/C=C/C(=O)NO)ccc2c(=O)n1CCc1ccc(OC)cc1 | 1.69 | 5.57
COc1ccc2[nH]c(C(=O)OCc3ccc4cccc(O)c4n3)cc2c1 | 1.37 | 3.08
COc1ccc(-c2n[nH]nc2-c2cc(OC)c3c(c2)OCO3)cc1 | 0.023 | 42.6
Cc1c(C)c2c(c(C)c1OCC(=O)O)CC[C@@](C)(CCC[C@@H](C)CCC[C@@H](C)CCCC(C)C)O2 | 58.1 | 152
Cn1cc(C2=C(c3ccccc3C(F)(F)F)C(=O)NC2=O)c2ccccc21 | 11.6 | > 25
CCN(CC)c1ccc2nc3ccc(N=Nc4ccc(O)cc4)cc3[n+](-c3ccccc3)c2c1 | 1.47 | 3.61
COc1cccc(NC(=O)c2sc3nc4c(cc3c2N)C(O)CCC4)c1 (stereo not drawn) | 0.0881 | 6.7
COc1cc(-c2cc3ncccc3c3[nH]c(=O)c4cccnc4c23)cc(OC)c1OC | 1.61 | 96.1
Oc1c(O)c(Cl)c(Cl)c(Cl)c1Cl | 2.58 | 7.34
CCCCCCNC(=O)Oc1ccc(/C(=C(\C)c2ccc(Cl)cc2)c2ccc(OCCN(C)C)cc2)cc1 | 1.59 | 3.12
COc1ccc(-c2nsc3c2NC(=O)CC3c2cccc(Cl)c2)cc1 (stereo not drawn) | 0.735 | 11
Cn1cncc1-c1c(F)cncc1NC(=O)c1c(N)nn2cc(F)cnc12 | 1.96 | 16.2
COc1cc(CN(c2ccc(C)cc2)C2OC(=O)c3ccccc32)cc(OC)c1OC (stereo not drawn) | 0.132 | 0.527
